Data as given in US9931351B2, “Method for improving leptin resistance” (Kyoto University, priority 2013, dated 2018).

Experiments:
Format in all cases: in vivo
[1] = tested on: wild type mice having diet-induced obesity; experiment: Test Example 4: effects to improve metabolism in wild type mice having diet-induced obesity caused by a high fat diet; details: wild type mice obese after four-week high fat diet, continued high fat diet, 50 mg/kg/day intraperitoneal once a day, further four weeks
Protocol: (§1) Eight-week old male wild type mice and transgenic mice overexpressing leptin (LepTg) (see Test Example 1) were divided into two groups, respectively (n=4 and 12), and kept for four weeks under a standard diet (SD) or a high fat diet (HFD) condition. All the mice fed with the standard diet for the four weeks were assigned to the group “vehicle (V)” and fed with the standard diet for further four weeks, and then the body weight and the food intake of the mice were measured. The mice fed with the high fat diet for the four weeks were divided into three groups: “vehicle (V)”, “Compound 57”, and “Compound 32”, and fed with the high fat diet for further four weeks, and then the body weight and the food intake of the mice were measured. The vehicle, Compound 57, and Compound 32 were administered to the mice by intraperitoneal injection once a day. The each dosage of Compounds 57 and 32 was 50 mg/kg/day. Finally the mice were sacrificed and blood, epididymal adipose tissues, and the liver were collected. The weight of the adipose tissues, the liver weight, and the plasma levels of glucose and triglyceride were measured (n=4 for each group).

[2] = tested on: wild type rats having diet-induced obesity; experiment: Test Example 8: effects to improve metabolism in rats having diet-induced obesity caused by a high fat diet; details: wild type rats obese after four-week high fat diet, continued high fat diet, 20 mg/kg/day intraperitoneal once a day, further four weeks; for weight of the adipose tissues: epididymal
Protocol: Eight-week old male wild type rats were divided into two groups (n =5 and 15) and kept for four weeks under a standard diet (SD) or a high fat diet (HFD) condition. All the rats fed with the standard diet for the four weeks were assigned to the group “vehicle (V)” and fed with the standard diet for further four weeks, and then the body weight of the rats was measured. The rats fed with the high fat diet for the four weeks were divided into three groups: “vehicle”, “Compound 57”, and “Compound 32”, and fed with the high fat diet for further four weeks, and then the body weight of the rats was measured. The vehicle, Compound 57, and Compound 32 were administered to the rats by intraperitoneal injection once a day. The each dosage of Compounds 57 and 32 was 20 mg/kg/day. Finally the rats were sacrificed, blood, epididymal adipose tissues, and the liver were collected, and the weight of the adipose tissues, the liver weight, and the plasma levels of glucose, insulin, total cholesterol, triglyceride, and nonesterified fatty acid were measured (n =5 for each group).

Seipin KO rats = experiment: Test Example 7: effects to improve metabolism in Seipin KO rats, a model of generalized lipodystrophy; details: standard diet, 20 mg/kg/day intraperitoneal once a day, four weeks
Protocol: Seipin KO rats have a mutation in the Seipin gene, the causative gene of human generalized lipodystrophy, and are used as a model of generalized lipodystrophy. The rats have substantially no white adipocyte and thus cannot produce leptin. The rats were prepared in Department of Endocrinology and Metabolism, Kyoto University. Eight-week old male Seipin KO rats were divided into three treatment groups: “Vehicle (V)”, “Compound 57”, and “Compound 32”. The rats were kept for four weeks with ad libitum feeding of standard diet, and the body weight of the rats were measured. The vehicle, Compound 57, and Compound 32 were administered to the rats by intraperitoneal injection once a day. The each dosage of Compounds 57 and 32 was 20 mg/kg/day. After the four weeks the rats were sacrificed, blood was collected, and the plasma levels of glucose and insulin were measured (n=3 for each group).

[3] = tested on: transgenic mice overexpressing leptin (LepTg) having diet-induced obesity; experiment: Test Example 4: effects to improve metabolism in LepTg mice having diet-induced obesity caused by a high fat diet; details: LepTg mice obese after four-week high fat diet, continued high fat diet, 50 mg/kg/day intraperitoneal once a day, further four weeks; for weight of the adipose tissues: epididymal
Protocol: as §1

[4] = tested on: transgenic mice overexpressing leptin (LepTg) under the high fat diet condition; experiment: Test Example 1: effects to improve metabolism in transgenic mice overexpressing leptin under a high fat diet condition; details: 60% high fat diet, 50 mg/kg/day intraperitoneal once a day, four weeks; for weight of the adipose tissues: epididymal
Protocol: Eight-week old male wild type mice and transgenic mice overexpressing leptin (LepTg) (Ogawa et al. Diabetes 48: 1822-1829, 1999, prepared in Department of Endocrinology and Metabolism, Kyoto University) were divided into three treatment groups, respectively: “standard diet (SD)+vehicle (V)”, “60% high fat diet (HFD)+vehicle”, and “60% high fat diet+Compound 57”. The mice were kept for four weeks with ad libitum feeding, and the body weight and the food intake of the mice were measured. The vehicle and Compound 57 were administered to the mice by intraperitoneal injection once a day. The dosage of Compound 57 was 50 mg/kg/day. After the four weeks the mice were sacrificed and blood, epididymal adipose tissues, and the liver were collected. The weight of the adipose tissues, the liver weight, the liver triglyceride levels, and the plasma levels of glucose, insulin, total cholesterol (T-chol), triglyceride (TG), and nonesterified fatty acid (NEFA) were measured (n=5 for each group). The equivalent dosage of Compound 32 was tested in a similar manner (n=5 for each group).

[5] = tested on: leptin-deficient ob/ob mice; experiment: Test Example 2: effects to improve metabolism in leptin-deficient ob/ob mice; details: standard diet, 50 mg/kg/day intraperitoneal once a day, four weeks; for weight of the adipose tissues: epididymal; for nonesterified fatty acid levels / total cholesterol levels / triglyceride levels: plasma
Protocol: Ob/ob mice cannot produce leptin due to a mutation in the leptin gene (Zhang et al. Nature 372: 425-432, 1994). Eight-week old male ob/ob mice, purchased from CHARLES RIVER LABORATORIES JAPAN, INC., were divided into two treatment groups: “Vehicle (V)” and “Compound 57”. The mice were kept for four weeks with ad libitum feeding of standard diet (SD), and the body weight and the food intake of the mice were measured. The vehicle and Compound 57 were administered to the mice by intraperitoneal injection once a day. The dosage of Compound 57 was 50 mg/kg/day. After the four weeks the mice were sacrificed and blood, epididymal adipose tissues, and the liver were collected. The weight of the adipose tissues, the liver weight, the liver triglyceride levels, and the plasma levels of glucose, insulin, total cholesterol (T-chol), triglyceride (TG) and nonesterified fatty acid (NEFA) were measured (n=5 for each group). The equivalent dosage of Compound 32 was tested in a similar manner (n=5 for each group).

Nc1c(/N=N/c2ccc(-c3cccc4c3sc3ccccc34)nc2)cc(S(=O)(=O)[O-])c2ccccc12.[Na+] [Compound 57, 4-amino-3-(6-dibenzothiophene-4-ylpyridine-3-ylazo)naphthalene-1-sulfonic acid sodium salt]
blood level of glucose [1]: decreased | blood level of triglyceride [1]: decreased | body weight [1]: decreased | food intake [1]: significantly decreased | body weight [2]: decreased | plasma level of glucose [2]: decreased | plasma level of insulin [2]: decreased | plasma level of nonesterified fatty acid [2]: decreased | plasma level of total cholesterol [2]: decreased | plasma level of triglyceride [2]: decreased | weight of the adipose tissues [2]: decreased | body weight (Seipin KO rats): did not change | plasma insulin (Seipin KO rats): did not change | random plasma glucose levels (Seipin KO rats): did not change | blood level of glucose [3]: decreased | blood level of triglyceride [3]: decreased | body weight [3]: decreased | food intake [3]: significantly decreased | liver weight [3]: decreased | weight of the adipose tissues [3]: significantly decreased | body weight [4]: did not increase | food intake [4]: did not increase | liver triglyceride levels [4]: did not increase | liver weight [4]: did not increase | plasma insulin levels [4]: did not increase | plasma level of nonesterified fatty acid [4]: did not increase | plasma level of total cholesterol [4]: did not increase | plasma level of triglyceride [4]: did not increase | random plasma glucose levels [4]: did not increase | weight of the adipose tissues [4]: did not increase | body weight [5]: decreased | food intake [5]: did not change | liver triglyceride levels [5]: decreased | liver weight [5]: decreased | plasma insulin levels [5]: did not change | random plasma glucose levels [5]: did not change | weight of the adipose tissues [5]: decreased | nonesterified fatty acid levels [5]: decreased | total cholesterol levels [5]: decreased | triglyceride levels [5]: did not clearly change

Cc1cc(F)ccc1-c1ccc(/N=N/c2cc(S(=O)(=O)[O-])c3ccccc3c2N)cn1.[Na+] [Compound 32, 4-amino-3-[6-(4-fluoro-2-methylphenyl)pyridine-3-ylazo]naphthalene-1-sulfonic acid sodium salt]
blood level of glucose [1]: decreased | blood level of triglyceride [1]: decreased | body weight [1]: decreased | body weight [2]: decreased | plasma level of glucose [2]: decreased | plasma level of insulin [2]: decreased | plasma level of nonesterified fatty acid [2]: decreased | plasma level of total cholesterol [2]: decreased | plasma level of triglyceride [2]: decreased | weight of the adipose tissues [2]: decreased | body weight (Seipin KO rats): did not change | plasma insulin (Seipin KO rats): did not change | random plasma glucose levels (Seipin KO rats): did not change | blood level of glucose [3]: decreased | blood level of triglyceride [3]: decreased | body weight [3]: decreased | food intake [3]: significantly decreased | weight of the adipose tissues [3]: significantly decreased | body weight [4]: did not increase | food intake [4]: did not increase | liver triglyceride levels [4]: did not increase | liver weight [4]: did not increase | plasma insulin levels [4]: did not increase | plasma level of nonesterified fatty acid [4]: did not increase | plasma level of total cholesterol [4]: did not increase | plasma level of triglyceride [4]: did not increase | random plasma glucose levels [4]: did not increase | weight of the adipose tissues [4]: did not increase | body weight [5]: did not | food intake [5]: did not change | liver triglyceride levels [5]: did not change | liver weight [5]: did not change | plasma insulin levels [5]: did not change | random plasma glucose levels [5]: did not change | weight of the adipose tissues [5]: did not change | nonesterified fatty acid levels [5]: did not change | total cholesterol levels [5]: did not change | triglyceride levels [5]: did not change
